{
  "source": "paper PMC6199744",
  "about": "“Development of Chemical Proteomics for the Folateome and Analysis of the Kinetoplastid Folateome” (ACS Infectious Diseases, 2018)",
  "format_in_all_cases": "binding",
  "key": {"[1]": {"target": "T1, HeLa cell extract proteins (Homo sapiens, UniProt Q9UBQ5)", "T1 construct": "endogenous in cells; host or cells: HeLa cell extract", "T1 sequence (Q9UBQ5 whole entry)": "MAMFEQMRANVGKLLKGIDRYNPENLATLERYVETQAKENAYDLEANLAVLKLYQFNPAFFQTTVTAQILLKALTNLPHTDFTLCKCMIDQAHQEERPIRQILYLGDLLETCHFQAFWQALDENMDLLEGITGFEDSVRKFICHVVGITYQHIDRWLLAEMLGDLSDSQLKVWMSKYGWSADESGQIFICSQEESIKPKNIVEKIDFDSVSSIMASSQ"}, "[2]": {"target": "T2, HeLa cell extract proteins (Homo sapiens, UniProt P13804)", "T2 construct": "endogenous in cells; host or cells: HeLa cell extract", "T2 sequence (P13804 20-333)": "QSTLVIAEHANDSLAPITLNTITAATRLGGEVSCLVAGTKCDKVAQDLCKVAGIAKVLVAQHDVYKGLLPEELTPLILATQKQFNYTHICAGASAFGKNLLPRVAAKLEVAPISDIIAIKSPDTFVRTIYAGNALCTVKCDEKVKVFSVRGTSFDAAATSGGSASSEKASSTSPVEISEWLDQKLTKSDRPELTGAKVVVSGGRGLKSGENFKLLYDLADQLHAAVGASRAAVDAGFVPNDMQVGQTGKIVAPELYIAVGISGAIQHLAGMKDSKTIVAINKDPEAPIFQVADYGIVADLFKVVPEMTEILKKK"}, "[3]": {"target": "T3, HeLa cell extract proteins (Homo sapiens, UniProt P35268)", "T3 construct": "endogenous in cells; host or cells: HeLa cell extract"}, "[4]": {"target": "T4, HeLa cell extract proteins (Homo sapiens, UniProt Q8NB46)", "T4 construct": "endogenous in cells; host or cells: HeLa cell extract", "T4 sequence (Q8NB46 1-1076)": "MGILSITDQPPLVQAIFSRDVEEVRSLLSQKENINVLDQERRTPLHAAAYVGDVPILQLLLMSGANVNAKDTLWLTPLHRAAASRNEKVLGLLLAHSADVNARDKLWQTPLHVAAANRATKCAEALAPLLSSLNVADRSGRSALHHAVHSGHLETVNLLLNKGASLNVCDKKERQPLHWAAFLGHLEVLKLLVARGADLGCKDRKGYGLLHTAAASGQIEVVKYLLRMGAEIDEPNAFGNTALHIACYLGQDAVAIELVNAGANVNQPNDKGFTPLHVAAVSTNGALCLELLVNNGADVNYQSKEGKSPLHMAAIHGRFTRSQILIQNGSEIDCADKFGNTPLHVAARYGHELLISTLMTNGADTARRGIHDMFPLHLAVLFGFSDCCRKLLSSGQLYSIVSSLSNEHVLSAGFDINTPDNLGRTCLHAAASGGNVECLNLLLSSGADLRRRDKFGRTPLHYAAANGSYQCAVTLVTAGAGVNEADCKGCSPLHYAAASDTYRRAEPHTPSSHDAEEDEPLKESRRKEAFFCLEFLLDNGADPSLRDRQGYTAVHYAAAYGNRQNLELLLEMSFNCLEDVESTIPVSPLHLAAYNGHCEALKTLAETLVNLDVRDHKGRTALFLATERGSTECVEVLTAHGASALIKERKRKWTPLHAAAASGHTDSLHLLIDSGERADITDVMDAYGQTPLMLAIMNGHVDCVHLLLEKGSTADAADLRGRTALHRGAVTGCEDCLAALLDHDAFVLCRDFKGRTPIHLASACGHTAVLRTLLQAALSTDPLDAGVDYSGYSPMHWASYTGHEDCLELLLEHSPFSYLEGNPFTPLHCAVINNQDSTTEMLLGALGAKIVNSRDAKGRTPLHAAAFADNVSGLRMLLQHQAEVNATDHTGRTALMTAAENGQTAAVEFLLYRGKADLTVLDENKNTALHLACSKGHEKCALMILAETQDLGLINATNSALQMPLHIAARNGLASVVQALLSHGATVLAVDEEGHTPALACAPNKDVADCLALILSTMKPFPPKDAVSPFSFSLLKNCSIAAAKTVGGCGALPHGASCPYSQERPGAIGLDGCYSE"}, "[5]": {"target": "T5, HeLa cell extract proteins (Homo sapiens, UniProt A0FGR8)", "T5 construct": "endogenous in cells; host or cells: HeLa cell extract", "T5 sequence (A0FGR8 1-921)": "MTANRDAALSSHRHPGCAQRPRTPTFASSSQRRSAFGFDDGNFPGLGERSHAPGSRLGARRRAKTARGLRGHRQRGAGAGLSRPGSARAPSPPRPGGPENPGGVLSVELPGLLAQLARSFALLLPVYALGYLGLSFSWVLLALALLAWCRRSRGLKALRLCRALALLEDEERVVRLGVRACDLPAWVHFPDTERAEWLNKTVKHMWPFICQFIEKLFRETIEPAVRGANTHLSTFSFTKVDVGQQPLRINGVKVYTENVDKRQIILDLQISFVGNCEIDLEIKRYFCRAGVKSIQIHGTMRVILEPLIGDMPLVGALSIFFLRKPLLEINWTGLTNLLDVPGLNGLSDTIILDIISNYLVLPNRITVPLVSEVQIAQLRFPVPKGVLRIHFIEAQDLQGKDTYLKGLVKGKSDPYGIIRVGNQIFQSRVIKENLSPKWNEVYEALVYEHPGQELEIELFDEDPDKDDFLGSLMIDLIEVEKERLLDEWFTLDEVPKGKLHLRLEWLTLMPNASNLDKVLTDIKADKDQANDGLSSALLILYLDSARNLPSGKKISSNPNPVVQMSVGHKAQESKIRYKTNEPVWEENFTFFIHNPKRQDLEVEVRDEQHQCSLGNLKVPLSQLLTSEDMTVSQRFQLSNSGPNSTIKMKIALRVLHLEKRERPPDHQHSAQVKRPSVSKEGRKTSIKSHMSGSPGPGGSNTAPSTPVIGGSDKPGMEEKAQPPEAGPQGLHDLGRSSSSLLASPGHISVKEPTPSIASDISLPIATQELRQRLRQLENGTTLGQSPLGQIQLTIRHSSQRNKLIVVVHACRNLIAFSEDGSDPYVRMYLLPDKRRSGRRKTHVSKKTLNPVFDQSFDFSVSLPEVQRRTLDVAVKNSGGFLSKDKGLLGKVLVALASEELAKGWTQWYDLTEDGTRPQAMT", "conditions": "HeLa; protein FAM62B"}, "[6]": {"target": "T6, HeLa cell extract proteins (Homo sapiens, UniProt Q9H7Z7)", "T6 construct": "endogenous in cells; host or cells: HeLa cell extract", "T6 sequence (Q9H7Z7 whole entry)": "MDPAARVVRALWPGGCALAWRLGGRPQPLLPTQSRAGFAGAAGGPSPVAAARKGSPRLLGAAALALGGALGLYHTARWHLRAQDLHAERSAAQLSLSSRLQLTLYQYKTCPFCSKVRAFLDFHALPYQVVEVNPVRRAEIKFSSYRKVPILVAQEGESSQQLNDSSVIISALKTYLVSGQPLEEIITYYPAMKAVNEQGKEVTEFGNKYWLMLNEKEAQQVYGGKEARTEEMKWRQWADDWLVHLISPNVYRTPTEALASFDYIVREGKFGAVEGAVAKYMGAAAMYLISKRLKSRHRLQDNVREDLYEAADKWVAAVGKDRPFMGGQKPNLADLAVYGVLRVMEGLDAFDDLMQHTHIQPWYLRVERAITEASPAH", "conditions": "captured protein PTGES2; HeLa"}, "[7]": {"target": "T7, HeLa cell extract proteins (Homo sapiens, UniProt O43615)", "T7 construct": "endogenous in cells; host or cells: HeLa cell extract", "T7 sequence (O43615 1-452)": "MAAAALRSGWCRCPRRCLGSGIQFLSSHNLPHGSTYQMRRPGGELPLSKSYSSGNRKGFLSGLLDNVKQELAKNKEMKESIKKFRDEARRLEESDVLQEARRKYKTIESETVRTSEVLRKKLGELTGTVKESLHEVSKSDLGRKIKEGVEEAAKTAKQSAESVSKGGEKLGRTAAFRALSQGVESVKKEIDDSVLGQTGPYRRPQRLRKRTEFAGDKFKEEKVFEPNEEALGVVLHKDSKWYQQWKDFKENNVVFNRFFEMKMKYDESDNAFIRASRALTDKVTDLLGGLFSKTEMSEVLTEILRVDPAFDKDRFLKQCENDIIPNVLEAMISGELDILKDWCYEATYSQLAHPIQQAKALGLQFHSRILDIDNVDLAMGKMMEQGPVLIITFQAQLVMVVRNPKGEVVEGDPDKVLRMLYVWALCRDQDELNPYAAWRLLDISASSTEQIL", "conditions": "protein TIMM44; HeLa"}},
  "note": "Like-named read-outs stand apart in the source and are kept apart here.",
  "data": [
    {"smiles": "Nc1nc2c(c(=O)[nH]1)N(C=O)C(CNc1ccc(C(=O)N[C@@H](CCC(=O)O)C(=O)O)cc1)CN2", "note": "(stereo partly shown) [LEU, leucovorin]", "values": [
      {"measurement": "fold changes relative to vehicle control", "setting": "[1]; protein EIF3K, HeLa", "result": 0.94},
      {"measurement": "fold changes relative to vehicle control", "setting": "[2]; protein ETFA, HeLa", "result": 0.77},
      {"measurement": "fold changes relative to vehicle control", "setting": "[3]; HeLa, protein RPL22", "result": 0.86},
      {"measurement": "fold changes relative to vehicle control", "setting": "[4]; HeLa, protein ANKRD52", "result": 0.89}
    ]},
    {"smiles": "Nc1nc2[nH]cc(CCc3ccc(C(=O)N[C@@H](CCC(=O)O)C(=O)O)cc3)c2c(=O)[nH]1", "note": "[PTX, pemetrexed]", "values": [
      {"measurement": "fold changes relative to vehicle control", "setting": "[1]", "result": 0.97},
      {"measurement": "fold changes relative to vehicle control", "setting": "[2]", "result": 0.73},
      {"measurement": "fold changes relative to vehicle control", "setting": "[3]", "result": 0.98},
      {"measurement": "fold changes relative to vehicle control", "setting": "[4]", "result": 1.01}
    ]},
    {"smiles": "CCCCCCOc1ccc(Cc2cnc(N)nc2N)cc1", "note": "[compound 1]", "values": [
      {"measurement": "fold changes relative to vehicle control", "setting": "[5]", "result": 0.82},
      {"measurement": "fold changes relative to vehicle control", "setting": "[6]", "result": 0.87},
      {"measurement": "fold changes relative to vehicle control", "setting": "[7]", "result": 1.06}
    ]},
    {"smiles": "CCCCCCOc1cccc(Cc2cnc(N)nc2N)c1", "note": "[compound 2]", "values": [
      {"measurement": "fold changes relative to vehicle control", "setting": "[5]", "result": 1.29},
      {"measurement": "fold changes relative to vehicle control", "setting": "[6]", "result": 1.18},
      {"measurement": "fold changes relative to vehicle control", "setting": "[7]", "result": 1.29}
    ]},
    {"smiles": "Nc1nc2cccc(-c3ccccc3)c2n1Cc1ccc(Cl)c(Cl)c1", "note": "[compound 3]", "values": [
      {"measurement": "fold changes relative to vehicle control", "setting": "[5]", "result": 0.96},
      {"measurement": "fold changes relative to vehicle control", "setting": "[6]", "result": 0.84},
      {"measurement": "fold changes relative to vehicle control", "setting": "[7]", "result": 1.03}
    ]},
    {"smiles": "NCCOCCOCC(=O)Nc1nc2ncc(CNc3ccc(C(=O)NC(CCC(=O)O)C(=O)O)cc3)nc2c(=O)[nH]1", "note": "(stereo not shown) [compound 6]", "values": [
      {"measurement": "fold changes relative to vehicle control", "setting": "[1]; protein EIF3K, HeLa", "result": 1.06},
      {"measurement": "fold changes relative to vehicle control", "setting": "[2]; protein ETFA, HeLa", "result": 0.9},
      {"measurement": "fold changes relative to vehicle control", "setting": "[3]; HeLa, protein RPL22", "result": 1.2},
      {"measurement": "fold changes relative to vehicle control", "setting": "[4]; HeLa, protein ANKRD52", "result": 1.06}
    ]},
    {"smiles": "NCCCNc1ccc(C(=O)NC(CCC(=O)O)C(=O)O)cc1", "note": "(stereo not shown) [compound 7]", "values": [
      {"measurement": "fold changes relative to vehicle control", "setting": "[1]; protein EIF3K, HeLa", "result": 1.1},
      {"measurement": "fold changes relative to vehicle control", "setting": "[2]; protein ETFA, HeLa", "result": 0.87},
      {"measurement": "fold changes relative to vehicle control", "setting": "[3]; HeLa, protein RPL22", "result": 1.19},
      {"measurement": "fold changes relative to vehicle control", "setting": "[4]; HeLa, protein ANKRD52", "result": 1.03}
    ]}
  ]
}
